In ChEMBL document CHEMBL1201862, “PubChem BioAssay data set” (2004):
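Tested at 5 concentrations; 48 h exposure; 96-well plates; endpoints linearly interpolated, else capped at highest concentration. GI50 = concentration required for 50% inhibition of growth.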 Active and inactive are the calls of the source. Rule as the data show it: active = GI50 up to about 1.1 µM and inactive = higher.

Key:
Experiment in all cases: DTP human tumour cell line panel, 48 h
SNB-75 = test system: SNB-75
HL-60 = test system: HL-60
SR = test system: SR
KM12 = test system: KM12
NCI-H460 = test system: NCI-H460
HOP-92 = test system: HOP-92
HOP-62 = test system: HOP-62
SW-620 = test system: SW-620
HT-29 = test system: HT-29
NCI-H522 = test system: NCI-H522
SN12C = test system: SN12C
MOLT-4 = test system: MOLT-4
SK-OV-3 = test system: SK-OV-3
786-0 = test system: 786-0
UACC-257 = test system: UACC-257
UO-31 = test system: UO-31
SNB-19 = test system: SNB-19
OVCAR-8 = test system: OVCAR-8
RXF 393 = test system: RXF 393

Structure (SMILES)	GI50 (SNB-75)	GI50 (HL-60)	GI50 (SR)	GI50 (KM12)	GI50 (NCI-H460)	GI50 (HOP-92)	GI50 (HOP-62)	GI50 (SW-620)	GI50 (HT-29)	GI50 (NCI-H522)	GI50 (SN12C)	GI50 (MOLT-4)	GI50 (SK-OV-3)	GI50 (786-0)	GI50 (UACC-257)	GI50 (UO-31)	GI50 (SNB-19)	GI50 (OVCAR-8)	GI50 (RXF 393)
O=C(O)CCCc1cc2c(s1)-c1cccc3cccc-2c13	50.4 µM (inactive)	22.4 µM (inactive)	23.7 µM (inactive)	19.4 µM (inactive)	> 100 µM (inactive)	17.7 µM (inactive)	33.3 µM (inactive)	36.2 µM (inactive)	> 100 µM (inactive)	21 µM (inactive)	26 µM (inactive)	24.1 µM (inactive)	19.8 µM (inactive)	> 100 µM (inactive)	22.6 µM (inactive)	17 µM (inactive)	27.4 µM (inactive)	39.4 µM (inactive)	
COc1ccccc1-n1c(C)nc2ccccc2c1=O	> 100 µM (inactive)	> 100 µM (inactive)	> 100 µM (inactive)	> 100 µM (inactive)	> 100 µM (inactive)	> 100 µM (inactive)	> 100 µM (inactive)	> 100 µM (inactive)	> 100 µM (inactive)	> 100 µM (inactive)	> 100 µM (inactive)	> 100 µM (inactive)	> 100 µM (inactive)	> 100 µM (inactive)	> 100 µM (inactive)	> 100 µM (inactive)	> 100 µM (inactive)	> 100 µM (inactive)	> 100 µM (inactive)
C[Si]1(C)C(c2ccccc2)=CC2C(c3ccccc3)(c3ccccc3)OC21c1ccccc1 (configuration not stated)	> 100 µM (inactive)	28.7 µM (inactive)	29.4 µM (inactive)	> 100 µM (inactive)	> 100 µM (inactive)	48.5 µM (inactive)	> 100 µM (inactive)	> 100 µM (inactive)	43 µM (inactive)	> 100 µM (inactive)	> 100 µM (inactive)	58.1 µM (inactive)	> 100 µM (inactive)	> 100 µM (inactive)	> 100 µM (inactive)	> 100 µM (inactive)	> 100 µM (inactive)		47.5 µM (inactive)
CC/C(CC(=O)CCC(=O)Nc1ccccc1[N+](=O)[O-])=N/NC(=O)C[n+]1ccccc1	> 100 µM (inactive)	> 100 µM (inactive)	> 100 µM (inactive)	> 100 µM (inactive)	> 100 µM (inactive)	> 100 µM (inactive)	> 100 µM (inactive)	> 100 µM (inactive)	> 100 µM (inactive)	> 100 µM (inactive)	> 100 µM (inactive)	> 100 µM (inactive)	> 100 µM (inactive)	> 100 µM (inactive)	> 100 µM (inactive)	> 100 µM (inactive)	> 100 µM (inactive)	> 100 µM (inactive)	> 100 µM (inactive)
Cc1cc(O)nc(NNC(C#N)c2cccc([N+](=O)[O-])c2)n1 (configuration not stated)	65.3 µM (inactive)	> 100 µM (inactive)	74 µM (inactive)	> 100 µM (inactive)	> 100 µM (inactive)	> 100 µM (inactive)	> 100 µM (inactive)	> 100 µM (inactive)	> 100 µM (inactive)	> 100 µM (inactive)	> 100 µM (inactive)	> 100 µM (inactive)	> 100 µM (inactive)	> 100 µM (inactive)	> 100 µM (inactive)	73.1 µM (inactive)		> 100 µM (inactive)	> 100 µM (inactive)
O=C1/C(=C/c2ccccc2)N=C(c2ccccc2)N1C1Nc2cc3c(cc2S1)NC(N1C(=O)/C(=C/c2ccccc2)N=C1c1ccccc1)S3 (configuration not stated)		3.63 µM (inactive)	5.28 µM (inactive)	6.87 µM (inactive)	17.9 µM (inactive)	2.31 µM (inactive)	16.9 µM (inactive)	3.8 µM (inactive)	5.01 µM (inactive)	0.0258 µM (active)		4.13 µM (inactive)	> 100 µM (inactive)	53.6 µM (inactive)	3.78 µM (inactive)	47.8 µM (inactive)		4.33 µM (inactive)	18.4 µM (inactive)
CC1=CP(=O)(OC(C)C)C=C(C)C1=C(Cl)Cl (configuration not stated)	> 100 µM (inactive)	34.9 µM (inactive)	35.5 µM (inactive)	22.5 µM (inactive)	68.2 µM (inactive)	16.9 µM (inactive)	> 100 µM (inactive)	44 µM (inactive)	45.6 µM (inactive)	2.52 µM (inactive)	36.1 µM (inactive)	57.4 µM (inactive)	17.4 µM (inactive)	> 100 µM (inactive)	32.2 µM (inactive)	13.1 µM (inactive)	> 100 µM (inactive)	68.7 µM (inactive)	66.2 µM (inactive)
COc1cc(C(C#N)NNC(=O)Cc2ccccc2)cc(OC)c1OC (configuration not stated)	35.5 µM (inactive)	> 100 µM (inactive)	> 100 µM (inactive)	> 100 µM (inactive)	> 100 µM (inactive)	95.3 µM (inactive)	> 100 µM (inactive)	> 100 µM (inactive)	> 100 µM (inactive)	> 100 µM (inactive)	> 100 µM (inactive)	> 100 µM (inactive)	> 100 µM (inactive)	> 100 µM (inactive)	> 100 µM (inactive)	72.3 µM (inactive)		> 100 µM (inactive)	> 100 µM (inactive)
NC(=S)N/N=C/c1nccc2ccccc12	0.578 µM (active)	0.393 µM (active)	0.664 µM (active)	0.873 µM (active)	0.415 µM (active)	2.74 µM (inactive)	0.619 µM (active)	0.802 µM (active)	0.731 µM (active)	0.719 µM (active)	0.682 µM (active)	0.461 µM (active)	0.594 µM (active)	0.2 µM (active)		0.443 µM (active)	0.948 µM (active)	0.313 µM (active)	0.257 µM (active)
CC(C)(c1ccc(Oc2ccc(C#N)c(C#N)c2)cc1)c1ccc(Oc2ccc(C#N)c(C#N)c2)cc1	1.78 µM (inactive)	> 10 µM (inactive)	> 10 µM (inactive)	> 10 µM (inactive)	> 10 µM (inactive)	> 10 µM (inactive)	> 10 µM (inactive)	> 100 µM (inactive)	> 10 µM (inactive)	> 10 µM (inactive)	> 10 µM (inactive)	> 10 µM (inactive)	> 10 µM (inactive)	> 10 µM (inactive)	> 10 µM (inactive)	3.58 µM (inactive)	> 10 µM (inactive)	> 10 µM (inactive)	> 10 µM (inactive)
Cc1cc(O)nc(NNC(C#N)c2ccco2)n1 (configuration not stated)	37.2 µM (inactive)	> 100 µM (inactive)	> 100 µM (inactive)	> 100 µM (inactive)	> 100 µM (inactive)	> 100 µM (inactive)	> 100 µM (inactive)	> 100 µM (inactive)	> 100 µM (inactive)	> 100 µM (inactive)	> 100 µM (inactive)	> 100 µM (inactive)	> 100 µM (inactive)	> 100 µM (inactive)	> 100 µM (inactive)	> 100 µM (inactive)		> 100 µM (inactive)	> 100 µM (inactive)
CC(C)(C)c1cc([Si](C)(C)C)c(C#N)c([Si](C)(C)C)c1	47.3 µM (inactive)	22 µM (inactive)	34.9 µM (inactive)	88.9 µM (inactive)	> 100 µM (inactive)	> 100 µM (inactive)	> 100 µM (inactive)	> 100 µM (inactive)	76.7 µM (inactive)	46.6 µM (inactive)	> 100 µM (inactive)	37.2 µM (inactive)	> 100 µM (inactive)	> 100 µM (inactive)	34.3 µM (inactive)	> 100 µM (inactive)	62.1 µM (inactive)	> 100 µM (inactive)	36.6 µM (inactive)
O=C1c2cccnc2S(=O)(=O)N1c1ccc(Oc2ccccc2)cc1	> 100 µM (inactive)	> 100 µM (inactive)	80 µM (inactive)	> 100 µM (inactive)	> 100 µM (inactive)	> 100 µM (inactive)	> 100 µM (inactive)	> 100 µM (inactive)	> 100 µM (inactive)	> 100 µM (inactive)	> 100 µM (inactive)	92 µM (inactive)	41.4 µM (inactive)	> 100 µM (inactive)	92.7 µM (inactive)	> 100 µM (inactive)	> 100 µM (inactive)	> 100 µM (inactive)	69.7 µM (inactive)
COc1cc(Nc2nc3ccccc3nc2-c2cccs2)cc(OC)c1OC	40.6 µM (inactive)	15.2 µM (inactive)	26.1 µM (inactive)		33.7 µM (inactive)	13.9 µM (inactive)	39.4 µM (inactive)	50.4 µM (inactive)	41.7 µM (inactive)		30.9 µM (inactive)	12.9 µM (inactive)	40.2 µM (inactive)	22.4 µM (inactive)	28.8 µM (inactive)	> 10 µM (inactive)	56.9 µM (inactive)	> 10 µM (inactive)	16.6 µM (inactive)
C/C(=N\NC(N)=S)c1ccc(C)c(C)c1	40.3 µM (inactive)	15.1 µM (inactive)	68.9 µM (inactive)	44.5 µM (inactive)	59.3 µM (inactive)	93.3 µM (inactive)	> 100 µM (inactive)	52.8 µM (inactive)	19.4 µM (inactive)		49.9 µM (inactive)	15.8 µM (inactive)	75.7 µM (inactive)	44.6 µM (inactive)	44.2 µM (inactive)	52.1 µM (inactive)		66.2 µM (inactive)	23 µM (inactive)
